From the supplement of paper PMC11451515

Tests used:
Details in all cases: 48 h
NOMO1 [1] = experiment: AUC of viability dose-response curve (% viability x log10 dose units); higher = less sensitive
Method in brief: (§1)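 Viability of medium-adapted leukemia cells was measured by CellTiter-Glo One luminescence after 48 h at 37°C with library compounds in DMSO. Doses were 11 threefold steps from 47 μM to 0.79 nM, in 1536-well plates at 500 or 1000 cells/well. Signals were normalised per plate to DMSO and cell-free wells and fitted with a four-parameter log-logistic model on log10 dose. Area under the curve was integrated by trapezoidal rule, with curves exceeding full viability scaled and failed quality-control curves removed.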

P12-Ichikawa [2] = experiment: as above
Method in brief: as §1

SEM cells [3] = experiment: as above
Method in brief: as §1

NOMO1 [4] = experiment: cell viability relative to DMSO control; higher = less cytotoxic
Method in brief: (§2)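 Before seeding, each leukemia line was adapted for at least four passages in each medium. NOMO1 or SEM cells (500 cells/well) and P12-Ichikawa cells (1000 cells/well) went into 1536-well plates at 5 μl, then received library compounds in DMSO by pin dosing across 11 threefold concentrations, 47 μM to 0.79 nM. Readout was CellTiter-Glo One luminescence after 48 h at 37°C, and viability is given as a per-plate percentage of DMSO wells, with cell-free wells as background.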

P12-Ichikawa [5] = experiment: as above
Method in brief: as §2

SEM cells [6] = experiment: as above
Method in brief: as §2

NC[C@H](O)c1ccc(O)c(O)c1
AUC of viability dose-response curve
Details | NOMO1 [1] | P12-Ichikawa [2] | SEM cells [3]
HPLM + 10% dialyzed FBS | 411 | 460 | 443
RPMI 5 mM glucose + 10% FBS | 452 | 457 | 453
RPMI 5 mM glucose + 10% dialyzed FBS | 427 | 439 | 456

cell viability [%]
Details | NOMO1 [4] | P12-Ichikawa [5] | SEM cells [6]
HPLM + 10% dialyzed FBS, 0.000781 µM | 115 | 98.9 | 93.3
HPLM + 10% dialyzed FBS, 0.00234 µM | 117 | 100 | 102
HPLM + 10% dialyzed FBS, 0.00702 µM | 119 | 99 | 111
HPLM + 10% dialyzed FBS, 0.0211 µM | 104 | 103 | 101
HPLM + 10% dialyzed FBS, 0.0632 µM | 120 | 98.8 | 95.9
HPLM + 10% dialyzed FBS, 0.19 µM | 104 | 102 | 98.2
HPLM + 10% dialyzed FBS, 0.569 µM | 90.7 | 97.4 | 92
HPLM + 10% dialyzed FBS, 1.71 µM | 85.7 | 92.4 | 85.4
HPLM + 10% dialyzed FBS, 5.12 µM | 97.7 | 92.8 | 92.8
HPLM + 10% dialyzed FBS, 15.4 µM | 86.9 | 92.6 | 84.5
HPLM + 10% dialyzed FBS, 46.1 µM | 72.4 | 83.5 | 78.4
RPMI 5 mM glucose + 10% FBS, 0.000781 µM | 96.7 | 101 | 84
RPMI 5 mM glucose + 10% FBS, 0.00234 µM | 86.8 | 99.5 | 115
RPMI 5 mM glucose + 10% FBS, 0.00702 µM | 112 | 94.1 | 102
RPMI 5 mM glucose + 10% FBS, 0.0211 µM | 95.7 | 98.9 | 109
RPMI 5 mM glucose + 10% FBS, 0.0632 µM | 105 | 105 | 97.7
RPMI 5 mM glucose + 10% FBS, 0.19 µM | 91 | 96.7 | 100
RPMI 5 mM glucose + 10% FBS, 0.569 µM | 87.3 | 97.6 | 97
RPMI 5 mM glucose + 10% FBS, 1.71 µM | 91.2 | 92.3 | 89.5
RPMI 5 mM glucose + 10% FBS, 5.12 µM | 99.2 | 91.2 | 97.5
RPMI 5 mM glucose + 10% FBS, 15.4 µM | 97.5 | 90.2 | 82.8
RPMI 5 mM glucose + 10% FBS, 46.1 µM | 78 | 84.4 | 81.5
RPMI 5 mM glucose + 10% dialyzed FBS, 0.000781 µM | 93.2 | 89.9 | 84.9
RPMI 5 mM glucose + 10% dialyzed FBS, 0.00234 µM | 90.3 | 96 | 103
RPMI 5 mM glucose + 10% dialyzed FBS, 0.00702 µM | 99 | 99.9 | 88.5
RPMI 5 mM glucose + 10% dialyzed FBS, 0.0211 µM | 91 | 88.1 | 103
RPMI 5 mM glucose + 10% dialyzed FBS, 0.0632 µM | 88.1 | 96.1 | 104
RPMI 5 mM glucose + 10% dialyzed FBS, 0.19 µM | 85.4 | 97.6 | 99.1
RPMI 5 mM glucose + 10% dialyzed FBS, 0.569 µM | 86.6 | 86.3 | 100
RPMI 5 mM glucose + 10% dialyzed FBS, 1.71 µM | 93.4 | 93.6 | 91.9
RPMI 5 mM glucose + 10% dialyzed FBS, 5.12 µM | 83.3 | 92 | 96.7
RPMI 5 mM glucose + 10% dialyzed FBS, 15.4 µM | 88.6 | 86.5 | 96.9
RPMI 5 mM glucose + 10% dialyzed FBS, 46.1 µM | 87.7 | 81.5 | 72.9

O=C(Nc1cccnc1)N1CCC(Cc2cccc(Oc3ccc(C(F)(F)F)cn3)c2)CC1
AUC of viability dose-response curve
Details | NOMO1 [1] | P12-Ichikawa [2] | SEM cells [3]
HPLM + 10% dialyzed FBS | 405 | 361 | 337
RPMI 5 mM glucose + 10% FBS | 427 | 346 | 299
RPMI 5 mM glucose + 10% dialyzed FBS | 425 | 344 | 303

cell viability [%]
Details | NOMO1 [4] | P12-Ichikawa [5] | SEM cells [6]
HPLM + 10% dialyzed FBS, 0.000781 µM | 98.9 | 116 | 42
HPLM + 10% dialyzed FBS, 0.00234 µM | 112 | 107 | 94.2
HPLM + 10% dialyzed FBS, 0.00702 µM | 108 | 109 | 83.5
HPLM + 10% dialyzed FBS, 0.0211 µM | 116 | 104 | 95.1
HPLM + 10% dialyzed FBS, 0.0632 µM | 115 | 110 | 117
HPLM + 10% dialyzed FBS, 0.19 µM | 115 | 92 | 88.7
HPLM + 10% dialyzed FBS, 0.569 µM | 116 | 83.1 | 94.3
HPLM + 10% dialyzed FBS, 1.71 µM | 91.4 | 76.3 | 69.6
HPLM + 10% dialyzed FBS, 5.12 µM | 81.3 | 68.7 | 49.3
HPLM + 10% dialyzed FBS, 15.4 µM | 32.6 | 27.1 | 11.2
HPLM + 10% dialyzed FBS, 46.1 µM | 19 | 15.5 | 9
RPMI 5 mM glucose + 10% FBS, 0.000781 µM | 111 | 109 | 46.8
RPMI 5 mM glucose + 10% FBS, 0.00234 µM | 104 | 117 | 92.7
RPMI 5 mM glucose + 10% FBS, 0.00702 µM | 99.7 | 117 | 81.5
RPMI 5 mM glucose + 10% FBS, 0.0211 µM | 98.6 | 106 | 89.8
RPMI 5 mM glucose + 10% FBS, 0.0632 µM | 110 | 118 | 100
RPMI 5 mM glucose + 10% FBS, 0.19 µM | 107 | 97.6 | 88.4
RPMI 5 mM glucose + 10% FBS, 0.569 µM | 108 | 82.2 | 64.9
RPMI 5 mM glucose + 10% FBS, 1.71 µM | 101 | 64.2 | 57.1
RPMI 5 mM glucose + 10% FBS, 5.12 µM | 108 | 55.6 | 35.8
RPMI 5 mM glucose + 10% FBS, 15.4 µM | 35.1 | 23.5 | 6.35
RPMI 5 mM glucose + 10% FBS, 46.1 µM | 23 | 10.4 | 4.68
RPMI 5 mM glucose + 10% dialyzed FBS, 0.000781 µM | 98.2 | 108 | 37.7
RPMI 5 mM glucose + 10% dialyzed FBS, 0.00234 µM | 103 | 108 | 91.2
RPMI 5 mM glucose + 10% dialyzed FBS, 0.00702 µM | 92.1 | 113 | 81.1
RPMI 5 mM glucose + 10% dialyzed FBS, 0.0211 µM | 102 | 114 | 78.1
RPMI 5 mM glucose + 10% dialyzed FBS, 0.0632 µM | 102 | 103 | 98.4
RPMI 5 mM glucose + 10% dialyzed FBS, 0.19 µM | 118 | 88.4 | 91.1
RPMI 5 mM glucose + 10% dialyzed FBS, 0.569 µM | 116 | 81.1 | 86.9
RPMI 5 mM glucose + 10% dialyzed FBS, 1.71 µM | 107 | 62.6 | 58.1
RPMI 5 mM glucose + 10% dialyzed FBS, 5.12 µM | 85.8 | 50.4 | 34.7
RPMI 5 mM glucose + 10% dialyzed FBS, 15.4 µM | 47 | 29.3 | 14.4
RPMI 5 mM glucose + 10% dialyzed FBS, 46.1 µM | 31.5 | 13.9 | 8.02

CCn1c(C(=O)N(C2CC2)C2CC2)cc2c3c(ncn3C)c(Nc3cc(C)n(C)n3)nc21
AUC of viability dose-response curve
Details | NOMO1 [1] | P12-Ichikawa [2] | SEM cells [3]
HPLM + 10% dialyzed FBS | 472 | 466 | 454
RPMI 5 mM glucose + 10% FBS | 473 | 473 | 446
RPMI 5 mM glucose + 10% dialyzed FBS | 464 | 467 | 435

cell viability [%]
Details | NOMO1 [4] | P12-Ichikawa [5] | SEM cells [6]
HPLM + 10% dialyzed FBS, 0.000781 µM | 90.4 | 88.3 | 75.8
HPLM + 10% dialyzed FBS, 0.00234 µM | 113 | 99.8 | 100
HPLM + 10% dialyzed FBS, 0.00702 µM | 106 | 99.5 | 113
HPLM + 10% dialyzed FBS, 0.0211 µM | 114 | 104 | 99.9
HPLM + 10% dialyzed FBS, 0.0632 µM | 122 | 109 | 107
HPLM + 10% dialyzed FBS, 0.19 µM | 115 | 117 | 101
HPLM + 10% dialyzed FBS, 0.569 µM | 113 | 110 | 99.9
HPLM + 10% dialyzed FBS, 1.71 µM | 105 | 108 | 106
HPLM + 10% dialyzed FBS, 5.12 µM | 108 | 107 | 94.3
HPLM + 10% dialyzed FBS, 15.4 µM | 119 | 107 | 78.8
HPLM + 10% dialyzed FBS, 46.1 µM | 88.5 | 86.5 | 55.3
RPMI 5 mM glucose + 10% FBS, 0.000781 µM | 86.7 | 92.7 | 71.3
RPMI 5 mM glucose + 10% FBS, 0.00234 µM | 100 | 116 | 114
RPMI 5 mM glucose + 10% FBS, 0.00702 µM | 93.9 | 108 | 119
RPMI 5 mM glucose + 10% FBS, 0.0211 µM | 118 | 108 | 121
RPMI 5 mM glucose + 10% FBS, 0.0632 µM | 117 | 118 | 119
RPMI 5 mM glucose + 10% FBS, 0.19 µM | 103 | 107 | 123
RPMI 5 mM glucose + 10% FBS, 0.569 µM | 114 | 111 | 110
RPMI 5 mM glucose + 10% FBS, 1.71 µM | 102 | 110 | 106
RPMI 5 mM glucose + 10% FBS, 5.12 µM | 102 | 105 | 93
RPMI 5 mM glucose + 10% FBS, 15.4 µM | 111 | 112 | 91.3
RPMI 5 mM glucose + 10% FBS, 46.1 µM | 84.4 | 91.7 | 26.7
RPMI 5 mM glucose + 10% dialyzed FBS, 0.000781 µM | 84.1 | 90.4 | 75.7
RPMI 5 mM glucose + 10% dialyzed FBS, 0.00234 µM | 104 | 100 | 109
RPMI 5 mM glucose + 10% dialyzed FBS, 0.00702 µM | 105 | 97.6 | 117
RPMI 5 mM glucose + 10% dialyzed FBS, 0.0211 µM | 94.7 | 96.4 | 107
RPMI 5 mM glucose + 10% dialyzed FBS, 0.0632 µM | 116 | 102 | 104
RPMI 5 mM glucose + 10% dialyzed FBS, 0.19 µM | 111 | 97.2 | 100
RPMI 5 mM glucose + 10% dialyzed FBS, 0.569 µM | 115 | 98 | 102
RPMI 5 mM glucose + 10% dialyzed FBS, 1.71 µM | 112 | 98.6 | 112
RPMI 5 mM glucose + 10% dialyzed FBS, 5.12 µM | 110 | 102 | 82.8
RPMI 5 mM glucose + 10% dialyzed FBS, 15.4 µM | 116 | 107 | 66.8
RPMI 5 mM glucose + 10% dialyzed FBS, 46.1 µM | 98.6 | 87.6 | 34.1
